Assays:
FLT3-ITD = molecular target: T1, FLT3-ITD (Homo sapiens, UniProt P36888); assay: FLT3-ITD biochemical kinase assay (AlphaScreen)
T1 construct: FLT3-ITD; Invitrogen #PV6190
T1 sequence (P36888 1-993): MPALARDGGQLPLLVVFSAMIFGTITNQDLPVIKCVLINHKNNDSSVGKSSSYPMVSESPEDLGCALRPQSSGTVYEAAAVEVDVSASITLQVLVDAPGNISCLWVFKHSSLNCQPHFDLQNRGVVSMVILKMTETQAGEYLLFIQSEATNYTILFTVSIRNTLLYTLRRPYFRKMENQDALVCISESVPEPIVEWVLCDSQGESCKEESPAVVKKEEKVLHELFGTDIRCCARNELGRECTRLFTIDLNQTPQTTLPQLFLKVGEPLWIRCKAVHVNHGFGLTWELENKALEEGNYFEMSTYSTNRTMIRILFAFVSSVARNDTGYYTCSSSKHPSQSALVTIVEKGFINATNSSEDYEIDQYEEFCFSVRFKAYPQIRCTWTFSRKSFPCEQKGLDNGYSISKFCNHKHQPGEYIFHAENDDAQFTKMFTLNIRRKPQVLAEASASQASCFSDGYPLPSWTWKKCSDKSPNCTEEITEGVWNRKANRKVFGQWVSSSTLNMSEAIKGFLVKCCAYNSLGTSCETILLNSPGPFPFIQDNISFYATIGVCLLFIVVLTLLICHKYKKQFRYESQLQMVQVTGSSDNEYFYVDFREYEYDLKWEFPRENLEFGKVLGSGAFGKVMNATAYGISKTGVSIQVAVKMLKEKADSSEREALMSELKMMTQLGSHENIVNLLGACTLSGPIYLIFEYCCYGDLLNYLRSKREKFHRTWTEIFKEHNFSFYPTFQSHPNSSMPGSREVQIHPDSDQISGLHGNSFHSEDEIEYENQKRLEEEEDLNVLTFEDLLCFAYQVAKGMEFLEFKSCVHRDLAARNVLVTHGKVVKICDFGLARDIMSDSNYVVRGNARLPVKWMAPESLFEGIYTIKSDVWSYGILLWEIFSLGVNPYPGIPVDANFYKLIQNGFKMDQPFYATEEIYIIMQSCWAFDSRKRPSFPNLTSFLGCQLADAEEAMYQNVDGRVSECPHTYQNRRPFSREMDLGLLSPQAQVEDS
Summary of the method: (§1)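 Read-out is AlphaScreen at 580 nm, where reduced substrate tyrosine phosphorylation lowers bead proximity signal. Reactions contain 30 nM biotinylated poly(Glu4-Tyr) and ATP at 10 μM (D835Y) or 100 μM (ITD); PY20 acceptor beads 10 μg/mL final, 60 min at room temperature before reading.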

FLT3-D835Y = molecular target: T2, FLT3-D835Y (Homo sapiens, UniProt P36888, D835Y); assay: FLT3-D835Y biochemical kinase assay (AlphaScreen)
T2 construct: purchased Invitrogen PV3967
T2 sequence (P36888 27-993 D835Y): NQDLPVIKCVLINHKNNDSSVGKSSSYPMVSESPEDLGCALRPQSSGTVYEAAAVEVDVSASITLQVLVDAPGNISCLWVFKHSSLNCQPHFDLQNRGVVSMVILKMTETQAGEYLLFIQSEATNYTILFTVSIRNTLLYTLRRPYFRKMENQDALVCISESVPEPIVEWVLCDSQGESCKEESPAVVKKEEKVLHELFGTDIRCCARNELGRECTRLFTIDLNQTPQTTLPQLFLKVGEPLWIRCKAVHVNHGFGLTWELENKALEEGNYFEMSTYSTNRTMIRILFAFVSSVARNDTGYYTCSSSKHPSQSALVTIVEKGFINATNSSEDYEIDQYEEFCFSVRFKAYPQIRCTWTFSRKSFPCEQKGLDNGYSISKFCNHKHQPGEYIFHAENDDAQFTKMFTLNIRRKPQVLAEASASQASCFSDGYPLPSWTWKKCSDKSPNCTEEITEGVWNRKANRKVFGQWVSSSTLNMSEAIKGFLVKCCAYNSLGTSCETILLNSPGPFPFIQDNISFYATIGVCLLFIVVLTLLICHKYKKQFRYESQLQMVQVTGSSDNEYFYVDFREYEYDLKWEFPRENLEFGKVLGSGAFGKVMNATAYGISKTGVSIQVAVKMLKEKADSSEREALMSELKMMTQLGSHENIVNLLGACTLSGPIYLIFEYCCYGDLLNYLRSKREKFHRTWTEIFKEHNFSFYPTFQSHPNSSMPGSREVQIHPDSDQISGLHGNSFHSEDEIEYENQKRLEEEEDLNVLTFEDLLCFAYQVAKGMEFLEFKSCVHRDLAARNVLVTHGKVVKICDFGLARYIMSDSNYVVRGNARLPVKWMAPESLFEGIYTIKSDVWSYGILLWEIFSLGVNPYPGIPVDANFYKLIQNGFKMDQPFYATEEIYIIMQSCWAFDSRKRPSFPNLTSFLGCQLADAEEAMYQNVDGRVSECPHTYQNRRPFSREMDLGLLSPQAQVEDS
Summary of the method: as §1

Row | IC50 (FLT3-ITD) [µM] | IC50 (FLT3-D835Y) [µM] | SMILES
1 | 0.0001 to 1 | 0.0001 to 1 | COc1ncc(-c2cnc3[nH]cc(-c4ccc5ncn(C(C)(C)C)c5c4)c3c2)cn1 [P-265, 1-(tert-butyl)-6-(5-(2-methoxypyrimidin-5-yl)-1H-pyrrolo[2,3-b]pyridin-3-yl)-1H-benzo[d]imidazole]
2 | 0.0001 to 1 | 0.0001 to 1 | CC(C)(C)n1cnc2ccc(-c3c[nH]c4ncc(-c5cccc(NS(C)(=O)=O)c5)nc34)cc21 [P-097, N-[3-[7-(3-tert-butylbenzimidazol-5-yl)-5H-pyrrolo[2,3-b]pyrazin-2-yl]phenyl]methanesulfonamide]
3 | 0.0001 to 1 | 0.0001 to 1 | CCCS(=O)(=O)Nc1cccc(-c2cnc3[nH]cc(-c4ccc5ncn(C(C)(C)C)c5c4)c3n2)c1 [P-225, N-[3-[7-(3-tert-butylbenzimidazol-5-yl)-5H-pyrrolo[2,3-b]pyrazin-2-yl]phenyl]propane-1-sulfonamide]
4 | 0.0001 to 1 | 0.0001 to 1 | CN(c1cccc(-c2cnc3[nH]cc(-c4ccc5ncn(C)c5c4)c3c2)c1)S(C)(=O)=O [P-120, N-methyl-N-[3-[3-(3-methylbenzimidazol-5-yl)-1H-pyrrolo[2,3-b]pyridin-5-yl]phenyl]methanesulfonamide]
5 | 0.0001 to 1 | 0.0001 to 1 | COc1cc(-c2cnc3[nH]cc(-c4ccc5ncn(C6CCCN(C)C6)c5c4)c3n2)ccn1 (stereo not shown) [P-271, 2-(2-methoxy-4-pyridyl)-7-[3-(1-methyl-3-piperidyl)benzimidazol-5-yl]-5H-pyrrolo[2,3-b]pyrazine]
6 | 0.0001 to 1 | 0.0001 to 1 | N#Cc1cc(-c2cnc3[nH]cc(-c4ccc5ncn(C6CCCNC6)c5c4)c3n2)ccc1F (stereo not shown) [P-238, 2-fluoro-5-[7-[3-(3-piperidyl)benzimidazol-5-yl]-5H-pyrrolo[2,3-b]pyrazin-2-yl]benzonitrile]
7 | 0.0001 to 1 | 0.0001 to 1 | COC(=O)N1CCCC(n2cnc3ccc(-c4c[nH]c5ncc(-c6ccnc(OC)c6)nc45)cc32)C1 (stereo not shown) [P-261, methyl 3-(6-(2-(2-methoxypyridin-4-yl)-5H-pyrrolo[2,3-b]pyrazin-7-yl)-1H-benzo[d]imidazol-1-yl)piperidine-1-carboxylate]
8 | 0.0001 to 1 | 0.0001 to 1 | CC(C)(C)n1cnc2ccc(-c3c[nH]c4ncc(-c5cccc(N6CCCCS6(=O)=O)c5)nc34)cc21 [P-227, 2-[3-[7-(3-tert-butylbenzimidazol-5-yl)-5H-pyrrolo[2,3-b]pyrazin-2-yl]phenyl]thiazinane 1,1-dioxide]
9 | 0.0001 to 1 | 0.0001 to 1 | CC(C)(C)n1cnc2ccc(-c3c[nH]c4ncc(-c5ccc(N6CCOCC6)cc5)nc34)cc21 [P-100, 4-[4-[7-(3-tert-butylbenzimidazol-5-yl)-5H-pyrrolo[2,3-b]pyrazin-2-yl]phenyl]morpholine]
10 | 0.0001 to 1 | 0.0001 to 1 | CCCS(=O)(=O)Nc1cccc(-c2cnc3[nH]cc(-c4ccc5ncn(C(C)(C)C)c5c4)c3c2)c1 [P-216, N-[3-[3-(3-tert-butylbenzimidazol-5-yl)-1H-pyrrolo[2,3-b]pyridin-5-yl]phenyl]propane-1-sulfonamide]
11 | 0.0001 to 1 | 0.0001 to 1 | N#Cc1cccc(C#Cc2cnc3[nH]cc(-c4ccc5ncn(C6CCCNC6)c5c4)c3c2)c1 (stereo not shown) [P-243, 3-[2-[3-[3-(3-piperidyl)benzimidazol-5-yl]-1H-pyrrolo[2,3-b]pyridin-5-yl]ethynyl]benzonitrile]
12 | 0.0001 to 1 | 0.0001 to 1 | N#Cc1cccc(-c2cnc3[nH]cc(-c4ccc5ncn(-c6ccc(F)c(Cl)c6)c5c4)c3c2)c1 [P-210, 3-[3-[3-(3-chloro-4-fluoro-phenyl)benzimidazol-5-yl]-1H-pyrrolo[2,3-b]pyridin-5-yl]benzonitrile]
13 | 0.0001 to 1 | 0.0001 to 1 | COc1cc(-c2cnc3[nH]cc(-c4ccc5ncn(C6CCCNC6)c5c4)c3n2)cc(OC)n1 (stereo not shown) [P-195, 2-(2,6-dimethoxy-4-pyridyl)-7-[3-(3-piperidyl)benzimidazol-5-yl]-5H-pyrrolo[2,3-b]pyrazine]
14 | 0.0001 to 1 | 0.0001 to 1 | FC(F)n1cc(-c2cnc3[nH]cc(-c4ccc5ncn(C6CCCNC6)c5c4)c3n2)cn1 (stereo not shown) [P-257, 2-[1-(difluoromethyl)pyrazol-4-yl]-7-[3-(3-piperidyl)benzimidazol-5-yl]-5H-pyrrolo[2,3-b]pyrazine]
15 | 0.0001 to 1 | 0.0001 to 1 | COc1cc(-c2cnc3[nH]cc(-c4ccc5ncn(C(C)C)c5c4)c3n2)ccn1 [P-113, 7-(3-isopropylbenzimidazol-5-yl)-2-(2-methoxy-4-pyridyl)-5H-pyrrolo[2,3-b]pyrazine]
16 | 0.0001 to 1 | 0.0001 to 1 | COc1cc(-c2cnc3[nH]cc(-c4ccc5ncn(C6CCCN(C(C)=O)C6)c5c4)c3n2)ccn1 (stereo not shown) [P-260, 1-[3-[6-[2-(2-methoxy-4-pyridyl)-5H-pyrrolo[2,3-b]pyrazin-7-yl]benzimidazol-1-yl]-1-piperidyl]ethanone]
17 | 0.0001 to 1 | 0.0001 to 1 | CC(C)(C)n1cnc2ccc(-c3c[nH]c4ncc(NC(=O)c5cccc(C#N)c5)cc34)cc21 [P-235, N-[3-(3-tert-butylbenzimidazol-5-yl)-1H-pyrrolo[2,3-b]pyridin-5-yl]-3-cyano-benzamide]
18 | 0.0001 to 1 | 0.0001 to 1 | C#Cc1cnc2[nH]cc(-c3ccc4ncn(C(C)(C)C)c4c3)c2c1 [P-244, 1-tert-butyl-6-(5-ethynyl-1H-pyrrolo[2,3-b]pyridin-3-yl)benzimidazole]
19 | 0.0001 to 1 | 0.0001 to 1 | CC(C)(C)n1cnc2ccc(-c3c[nH]c4ncc(-c5cccc(S(=O)(=O)N6CCCC6)c5)nc34)cc21 [P-229, 7-(3-tert-butylbenzimidazol-5-yl)-2-(3-pyrrolidin-1-ylsulfonylphenyl)-5H-pyrrolo[2,3-b]pyrazine]
20 | 0.0001 to 1 | 0.0001 to 1 | COc1cc(C#Cc2cnc3[nH]cc(-c4ccc5ncn(C(C)(C)C)c5c4)c3c2)ccn1 [P-240, 1-(tert-butyl)-6-(5-((2-methoxypyridin-4-yl)ethynyl)-1H-pyrrolo[2,3-b]pyridin-3-yl)-1H-benzo[d]imidazole]
21 | 0.0001 to 1 | 0.0001 to 1 | CC(C)(C)n1cnc2ccc(-c3c[nH]c4ncc(-c5cnc(N6CCOCC6)nc5)cc34)cc21 [P-266, 4-[5-[3-(3-tert-butylbenzimidazol-5-yl)-1H-pyrrolo[2,3-b]pyridin-5-yl]pyrimidin-2-yl]morpholine]
22 | 0.0001 to 1 | 0.0001 to 1 | COc1cc(-c2cnc3[nH]cc(-c4ccc5ncn(C(C)(C)C)c5c4)c3n2)ccn1 [P-099, 7-(3-tert-butylbenzimidazol-5-yl)-2-(2-methoxy-4-pyridyl)-5H-pyrrolo[2,3-b]pyrazine]
23 | 0.0001 to 1 | 0.0001 to 1 | COc1cnc2[nH]cc(-c3ccc4ncn(-c5cccc(Cl)c5)c4c3)c2c1 [P-105, 1-(3-chlorophenyl)-6-(5-methoxy-1H-pyrrolo[2,3-b]pyridin-3-yl)benzimidazole]
